Assay results published in ChEMBL document CHEMBL4609973, “Hepatitis C - New drugs and treatment prospects” (Eur J Med Chem, 2019).

Key:
[1] = Half life in human; format: ADME
[2] = Absolute bioavailability in human; format: ADME, organism-based; conditions: in vivo
[3] = Drug excretion in human feces assessed as ombitasvir level; format: ADME, tissue-based; conditions: faeces, read-out: Drug excretion
[4] = Oral bioavailability in human under fed condition; format: ADME, organism-based; conditions: in vivo
[5] = Half life in HIV infected human; format: ADME
[6] = Oral bioavailability in human; format: ADME, organism-based; conditions: in vivo
[7] = Drug excretion in human feces assessed as daclatasvir level; format: ADME, tissue-based; conditions: faeces, read-out: Drug excretion
[8] = Drug excretion in human feces assessed as dasabuvir level; format: ADME, tissue-based; conditions: faeces, read-out: Drug excretion

half-life [1]	SMILES	also measured
1620 min	C[C@@]1(F)[C@H](O)[C@@H](CO)O[C@H]1n1ccc(=O)[nH]c1=O	
1380 to 1740 min	COC(=O)N[C@H](C(=O)N1CCC[C@H]1c1nc2cc([C@H]3CC[C@H](c4cc5nc([C@@H]6CCCN6C(=O)[C@@H](NC(=O)OC)[C@@H](C)OC)[nH]c5cc4F)N3c3cc(F)c(N4CCC(c5ccc(F)cc5)CC4)c(F)c3)c(F)cc2[nH]1)[C@@H](C)OC [PIBRENTASVIR]	
330 min	Cc1cnc(C(=O)N[C@H]2CCCCC/C=C\[C@@H]3C[C@@]3(C(=O)NS(=O)(=O)C3CC3)NC(=O)[C@@H]3C[C@@H](Oc4nc5ccccc5c5ccccc45)CN3C2=O)cn1 [PARITAPREVIR]	bioavailability [2]: 53%
1260 to 1500 min	COC(=O)N[C@H](C(=O)N1CCC[C@H]1C(=O)Nc1ccc([C@@H]2CC[C@@H](c3ccc(NC(=O)[C@@H]4CCCN4C(=O)[C@@H](NC(=O)OC)C(C)C)cc3)N2c2ccc(C(C)(C)C)cc2)cc1)C(C)C [OMBITASVIR]	bioavailability [2]: 48%; dose excreted [3]: 90.2%
600 to 780 min	COc1ccc2c(O[C@@H]3C[C@H]4C(=O)N[C@]5(C(=O)NS(=O)(=O)C6CC6)C[C@H]5/C=C\CCCCN(C)C(=O)[C@@H]4C3)cc(-c3nc(C(C)C)cs3)nc2c1C [SIMEPREVIR]	bioavailability [4]: 62%; half-life [5]: 2460 min
1440 min	COC(=O)N[C@H](C(=O)N1CCC[C@H]1c1nc(-c2ccc3c(c2)O[C@@H](c2ccccc2)n2c-3cc3cc(-c4c[nH]c([C@@H]5CCCN5C(=O)[C@@H](NC(=O)OC)C(C)C)n4)ccc32)c[nH]1)C(C)C [ELBASVIR]	
2820 min	COC(=O)N[C@H](C(=O)N1CC2(CC2)C[C@H]1c1ncc(-c2ccc3c(c2)C(F)(F)c2cc(-c4ccc5nc([C@@H]6[C@H]7CC[C@H](C7)N6C(=O)[C@@H](NC(=O)OC)C(C)C)[nH]c5c4)ccc2-3)[nH]1)C(C)C [LEDIPASVIR]	bioavailability [6]: 76%
360 min	CC(C)(C)[C@@H]1NC(=O)O[C@@H]2CCC[C@H]2OC/C=C/C(F)(F)c2nc3ccccc3nc2O[C@@H]2C[C@@H](C(=O)N[C@]3(C(=O)NS(=O)(=O)C4(C)CC4)C[C@H]3C(F)F)N(C2)C1=O [GLECAPREVIR]	
720 to 900 min	COC(=O)N[C@H](C(=O)N1CCC[C@H]1c1nc(-c2ccc(-c3ccc(-c4c[nH]c([C@@H]5CCCN5C(=O)[C@@H](NC(=O)OC)C(C)C)n4)cc3)cc2)c[nH]1)C(C)C [DACLATASVIR]	bioavailability [6]: 67%; dose excreted [7]: 53%
330 to 360 min	COc1c(-c2ccc3cc(NS(C)(=O)=O)ccc3c2)cc(-n2ccc(=O)[nH]c2=O)cc1C(C)(C)C [DASABUVIR]	bioavailability [2]: 70%; dose excreted [8]: 26.2%
1860 min	C=C[C@@H]1C[C@]1(NC(=O)[C@@H]1C[C@@H]2CN1C(=O)[C@H](C(C)(C)C)NC(=O)O[C@@H]1C[C@H]1CCCCCc1nc3ccc(OC)cc3nc1O2)C(=O)NS(=O)(=O)C1CC1 [GRAZOPREVIR ANHYDROUS]	
900 min	COC[C@H]1C[C@@H](c2ncc(-c3ccc4c(c3)COc3cc5c(ccc6nc([C@@H]7CC[C@H](C)N7C(=O)[C@@H](NC(=O)OC)C(C)C)[nH]c65)cc3-4)[nH]2)N(C(=O)[C@H](NC(=O)OC)c2ccccc2)C1 [VELPATASVIR]	

SMILES	half-life [1]	also measured
CC(C)OC(=O)[C@H](C)N[P@](=O)(OC[C@H]1O[C@@H](n2ccc(=O)[nH]c2=O)[C@](C)(F)[C@@H]1O)Oc1ccccc1 [SOFOSBUVIR]	24 min	bioavailability [6]: 92%
